Our source for the mortality values is US20060167091A1, “Acaricide” (priority 2003, published 2006).

The subject of the test is Two-spotted spider mites. Put plainly: Miticidal test on two-spotted spider mites. The class given is in vivo, Tetranychus urticae Koch. As to conditions: Tetranychus urticae, 48 h, 2 days after spraying, read-out: Mortality rate. The source says: Two-spotted spider mites from the Nagano prefecture, which are poorly sensitive to chemicals, were used as mite specimens. Preparation A and Preparation B were used as chemical specimens.
A plastic cup (trade name: KP-120, manufactured by Kohnoike plastic Co., Ltd.) was filled with tap water, and the plastic cup was covered with a lid having an incision therein. A piece of non-woven fabric (4.5×5.5 cm) was cut for about 4 cm parallel to its longer side 1 cm from the edge. The portion hanging loose was suspended inside the plastic cup through the incision. A kidney bean leaf (about 3.5×4.5 cm) was placed on the sufficiently soaked, non-woven fabric. Twenty female adults of two-spotted spider mites were released into each cup.
Preparation A and Preparation B each diluted with tap water to specific concentrations were mixed, and the mixture was sprayed in a volume of 2 ml using a spray tower (Potter Spray Tower, manufactured by Burkard Manufacturing Co. Ltd, at a spraying pressure of 5 lb/inch). The kidney bean leaf was placed in a thermostatic chamber having a temperature of 25±2° C. and a humidity of 60%. The numbers of live and dead mites were counted 2 days later. The mortality rate was calculated using the equation provided below.
For comparison, mortality rates were calculated in the same manner as above except that Formulation A and Formulation B each diluted with tap water to specific concentrations were used one without each other. Mortality rate=(1−V/W)×100 where V is the survival rate in the treated area, and W is the survival rate in the untreated area.
Furthermore, the effectiveness (E) anticipated from the miticide of the present invention was calculated using the Colby equation (Weeds 15, 20-22 (1967)) to obtain a mathematical effectiveness (%): E=x+y−(x·y/100) where E is the effectiveness expressed in % anticipated from Compound A and chlorfenapyr when used at concentrations of p and q, respectively; x is the effectiveness of Compound A when used at a concentration of p; and y is the effectiveness of chlorfenapyr when used at a concentration of q.

With `CCOCn1c(-c2ccc(Cl)cc2)c(C#N)c(Br)c1C(F)(F)F` [chlorfenapyr, 4-bromo-2-(4-chlorophenyl)-1-ethoxymethyl-5-trifluoromethylpyrrole-3-carbonitrile], under “chlorfenapyr 0.4 ppm alone (Compound A 0 ppm)”, the mortality at 0.4 ppm turned out to be 0%. Moreover, the mortality at 1 ppm (chlorfenapyr 1 ppm alone (Compound A 0 ppm)) was 0%. The mortality at 2 ppm (chlorfenapyr 2 ppm alone (Compound A 0 ppm)) was 0%. In addition, under “chlorfenapyr 5 ppm alone (Compound A 0 ppm)”, the mortality at 5 ppm worked out at 0%. Besides, the mortality at 10 ppm (chlorfenapyr 10 ppm alone (Compound A 0 ppm)) worked out at 84%.
In the case of `COCCOC(=O)C(C#N)(C(=O)c1ccccc1C(F)(F)F)c1ccc(C(C)(C)C)cc1` (stereo not shown) [Compound A, methoxyethyl 2-(4-tert-butylphenyl)-2-(2-trifluoromethylbenzoyl)cyanoacetate], for the setting “Compound A 12.5 ppm alone (chlorfenapyr 0 ppm), female adults on kidney bean leaf”, the mortality at 12.5 ppm is 19%. Under “Compound A 25 ppm alone (chlorfenapyr 0 ppm)”, the mortality at 25 ppm worked out at 45%. Besides, under “Compound A 50 ppm alone (chlorfenapyr 0 ppm)”, the mortality at 50 ppm came out at 48%. Moreover, under “Compound A 100 ppm alone (chlorfenapyr 0 ppm)”, the mortality at 100 ppm is 25%. In addition, under “Compound A 200 ppm alone (chlorfenapyr 0 ppm)”, the mortality at 200 ppm was found to be 66%.

Usually mortality stands for the share of the test organisms that died.
